# Literature values as cited in patent US20060111369A1, “Synthesis, characterization and biological action of optically active isomers of floxacins” (priority 2004, published 2006).
# Columns and labels:
# [1] = test system: gram-negative and gram-positive bacteria; settings: against both gram-negative and gram-positive bacteria
# [2] = effects on the CNS
# [3] = biological target: IKr potassium current channel (Homo sapiens, UniProt Q12809)
# [4] = according to the FDA
# Chain of IKr potassium current channel (Q12809 whole entry): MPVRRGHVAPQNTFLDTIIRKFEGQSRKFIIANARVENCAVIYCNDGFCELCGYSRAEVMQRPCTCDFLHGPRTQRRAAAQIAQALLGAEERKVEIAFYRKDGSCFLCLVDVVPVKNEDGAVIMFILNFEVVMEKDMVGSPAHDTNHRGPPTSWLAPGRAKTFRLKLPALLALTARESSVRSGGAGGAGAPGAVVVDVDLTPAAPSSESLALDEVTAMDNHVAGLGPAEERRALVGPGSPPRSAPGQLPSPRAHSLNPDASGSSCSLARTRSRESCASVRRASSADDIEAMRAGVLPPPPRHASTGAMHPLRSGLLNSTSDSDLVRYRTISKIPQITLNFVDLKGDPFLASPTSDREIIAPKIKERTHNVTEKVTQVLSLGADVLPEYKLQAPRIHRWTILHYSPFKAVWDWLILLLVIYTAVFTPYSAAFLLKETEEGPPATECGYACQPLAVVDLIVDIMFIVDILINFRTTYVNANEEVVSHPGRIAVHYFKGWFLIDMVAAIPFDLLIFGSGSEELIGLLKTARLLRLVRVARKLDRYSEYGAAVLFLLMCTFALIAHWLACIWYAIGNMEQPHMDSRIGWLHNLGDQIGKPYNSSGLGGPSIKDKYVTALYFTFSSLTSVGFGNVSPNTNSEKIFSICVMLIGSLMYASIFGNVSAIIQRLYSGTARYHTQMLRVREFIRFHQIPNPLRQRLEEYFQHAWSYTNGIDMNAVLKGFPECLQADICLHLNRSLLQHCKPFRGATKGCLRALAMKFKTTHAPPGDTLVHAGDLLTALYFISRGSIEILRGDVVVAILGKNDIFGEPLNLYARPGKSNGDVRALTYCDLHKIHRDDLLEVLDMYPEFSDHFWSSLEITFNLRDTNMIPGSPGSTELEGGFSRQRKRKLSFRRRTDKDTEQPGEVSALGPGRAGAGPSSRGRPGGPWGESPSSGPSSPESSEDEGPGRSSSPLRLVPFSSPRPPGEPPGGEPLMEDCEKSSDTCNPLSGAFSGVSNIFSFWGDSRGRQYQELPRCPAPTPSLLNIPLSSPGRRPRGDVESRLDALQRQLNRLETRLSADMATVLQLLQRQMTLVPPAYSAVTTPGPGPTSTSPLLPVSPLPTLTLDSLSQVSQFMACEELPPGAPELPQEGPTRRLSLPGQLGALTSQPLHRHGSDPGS
smiles,measurement,setting,value
"CC1COc2c(N3CCN(C)CC3)c(F)cc3c(=O)c(C(=O)O)cn1c23 (single isomer, unassigned; (-)) [(−)-Ofloxacin]",activity relative to the racemate,[1],8-128 times
"CC(N)Cc1ccccc1 (centres unmarked) [AP, amphetamine]",activity of S-isomer relative to R-isomer,[2],approximately five
"CN[C@@H](C)Cc1ccccc1 [MAP, methamphetamine]",activity of S-isomer relative to R-isomer,[2],approximately five
COc1cc(N)c(Cl)cc1C(=O)NC1CCNCC1OC (centres unmarked) [Norcisapride],effect on QT interval (in words),"human, in vivo",does not
COc1cc(N)c(Cl)cc1C(=O)NC1CCN(CCCOc2ccc(F)cc2)CC1OC (centres unmarked) [cisapride],effect on QT interval (in words),"human, in vivo",causes QT prolongation and arrhythmias
COc1c(N2CCNC(C)C2)c(F)cc2c(=O)c(C(=O)O)cn(C3CC3)c12 (centres unmarked) [gatifloxacin],effect on QT interval (in words),"human, in vivo",prolong the QT interval
Cc1c(F)c(N2CCNC(C)C2)cc2c1c(=O)c(C(=O)O)cn2C1CC1 (centres unmarked) [grepafloxacin],cardiac adverse events in clinical trials (in words),clinical trials,Heart-rhythm abnormalities were observed in some patients
same,effect on QT interval (in words),"human, in vivo",prolong the QT interval
C[C@H]1COc2c(N3CCN(C)CC3)c(F)cc3c(=O)c(C(=O)O)cn1c23 [levofloxacin],effect on QT interval (in words),"human, in vivo",prolong the QT interval
COc1c(N2C[C@@H]3CCCN[C@@H]3C2)c(F)cc2c(=O)c(C(=O)O)cn(C3CC3)c12 [moxifloxacin],mean QT prolongation,"human, in vivo",6 ms
same,outliners (QT prolongation),"human, in vivo",38
same,IKr blocker strength,[3],weak
C[C@@H]1CN(c2c(F)c(N)c3c(=O)c(C(=O)O)cn(C4CC4)c3c2F)C[C@H](C)N1 [sparfloxacin],effect on QT interval (in words),"human, in vivo",prolong the QT interval
same,"cardiac events per 10,000 prescriptions",[4],"145 per 10,000 prescriptions"
